Results from publication PMC2903208 (Organic letters, 2010).

Biological target: T1, mCD1d (Mus musculus, UniProt P11609)
T1 sequence (P11609 22-305 limits assumed): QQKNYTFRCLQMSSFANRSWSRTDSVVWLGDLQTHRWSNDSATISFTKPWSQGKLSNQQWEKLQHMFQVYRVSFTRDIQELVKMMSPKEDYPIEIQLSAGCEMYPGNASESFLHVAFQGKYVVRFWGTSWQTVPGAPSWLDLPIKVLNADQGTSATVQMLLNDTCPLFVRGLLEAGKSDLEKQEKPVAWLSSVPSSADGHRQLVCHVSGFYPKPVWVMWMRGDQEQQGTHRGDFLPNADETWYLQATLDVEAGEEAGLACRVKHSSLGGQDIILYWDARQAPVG
T1 sequence (P01887 21-119 partner): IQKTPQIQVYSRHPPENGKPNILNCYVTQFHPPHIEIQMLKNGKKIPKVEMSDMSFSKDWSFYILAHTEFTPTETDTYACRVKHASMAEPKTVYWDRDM
Assay: SPR of soluble TCR binding to glycolipid-loaded mCD1d

`CCCCCCCCCCCCCCCCCCCCCCCCCC(=O)N[C@@H](CO[C@H]1O[C@H](CO)[C@H](O)[C@H](O)[C@H]1O)[C@H](O)[C@H](O)CCCCCCCCCCCCCC` [compound 1, α-GalCer] gave a Kd of 12.8 nM.
